# Source: patent US20250197420A1, “MACROCYCLIC COMPOUNDS, COMPOSITIONS, AND METHODS OF USING THEREOF” (Sionna Therapeutics Inc., priority 2022, published 2025)
# Biological target: T1, Purified recombinant NBD1 (Homo sapiens, UniProt P13569)
# T1 construct: Purified recombinant NBD1 was produced using previously described methods; made in house
# Assay: Aggregation analysis using differential static light scattering (DSLS): thermal stability of NBD1
# Assay type: binding
# Settings: NBD1 0.2 mg/ml; Tagg of compound well minus average Tagg of DMSO control wells
# Protocol: Purified recombinant NBD1 was produced using previously described methods (A. Schmidt, J. L. Mendoza, P. J. Thomas (2011) Biochemical and Biophysical Approaches to Probe CFTR Structure (365-376) M. D. Amaral, K. Kunzelmann (eds.), Cystic Fibrosis, Methods in Molecular Biology 741, Springer Science+Business Media). The effect of test compounds on thermal stability of NBD1 was evaluated by differential static light scattering (DSLS) using the Harbinger Stargazer-384 instrument (Epiphyte Three, Toronto, Canada). Test compounds were dissolved and diluted to desired concentrations in 100% DMSO. The compounds or DMSO controls (100 nL) were stamped into wells of a […] low volume optical plate (Corning Inc., Corning, NY) using the Echo 555 acoustic liquid handler (Labcyte Inc., San Jose, CA).
# NBD1 protein was diluted to 0.2 mg/ml in S200 buffer (50 mM Tris-HCl, 150 mM NaCl, 5 mM MgCl2, 2 mM ATP, 2 mM DTT, pH7.6) containing 1% glycerol. 10 uL of protein solution was aliquoted into the 384-well plate harboring the test compounds and 10 uL mineral oil was overlaid onto the protein solution, using the epMotion robotic liquid handler (Eppendorf North America, Hauppauge, NY). After placing into the Stargazer instrument, the plate was heated at 1° C. per minute to 70° C. Images were captured from 25° C. to 70° C. every 0.5° C. At the end of the experiment run, instrument software integrated image files and analyzed data automatically. A […] regression curve was generated for each well, representing the increase in light scattering over time. A temperature of aggregation (Tagg) was calculated based on the inflection point of the curve. To better compare data across experiments the average Tagg for DMSO control wells was calculated and subtracted from values for wells containing compounds to obtain a “ΔTagg” value. These ΔTagg values reflect stabilizing efficacy of the compounds. As set forth in Table 2 below, an ΔTagg value less than or equal to 5° C. is marked “A”; a value above 5° C. and less than or equal to 10° C. is marked “B”; a value greater than 10° C. and less than or equal to 25° C. is marked “C”.
# T1 sequence (P13569 423-646 limits assumed): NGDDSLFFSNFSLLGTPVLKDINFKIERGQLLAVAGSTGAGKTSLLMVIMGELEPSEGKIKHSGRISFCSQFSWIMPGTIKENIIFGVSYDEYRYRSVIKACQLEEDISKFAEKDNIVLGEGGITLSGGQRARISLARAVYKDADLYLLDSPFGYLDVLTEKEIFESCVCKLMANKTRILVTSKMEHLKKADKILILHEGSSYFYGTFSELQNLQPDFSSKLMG
row,Compound,DSLS (ΔTagg)
1,"CN1CC(C)(C)COCC(C)(c2cccc(CCC(=O)O)c2)c2cnc([nH]2)-c2cc(ccc2F)Oc2c(F)cc3[nH]ccc3c2CCC1=O (racemic) [Compound 20A, 3-[3-(23,29-Difluoro-6,10,10,12-tetramethyl-13-oxo-8,25-dioxa-3,12,20,31-tetrazapentacyclo[24.3.1.12,5.016,24.017,21]hentriaconta-1(30),2,4,16,18,21,23,26,28-nonaen-6-yl)phenyl]propanoic acid]",C (a value greater than 10 °C and less than or equal to 25 °C is marked “C”)
2,"CCOC(=O)CCc1cccc(C2(C)CCCC(C)(C)CN(C)C(=O)CCc3c(c(F)cc4[nH]ccc34)Oc3ccc(F)c(c3)-c3ncc2[nH]3)c1 (single isomer, unassigned) [Compound 48A, ethyl 3-[3-(23,29-difluoro-6,10,10,12-tetramethyl-13-oxo-25-oxa-3,12,20,31-tetrazapentacyclo-[24.3.1.12,5.016,24.017,21]hentriaconta-1(30),2,4,16,18,21,23,26,28-nonaen-6-yl)phenyl]propanoate]",A (an ΔTagg value less than or equal to 5 °C is marked “A”)
3,"CCOC(=O)CCc1cccc(C2(C)CCCC(C)(C)CN(C)C(=O)CCc3c(c(F)cc4[nH]ccc34)Oc3ccc(F)c(c3)-c3ncc2[nH]3)c1 (single isomer, unassigned) [Compound 48B, ethyl 3-[3-(23,29-difluoro-6,10,10,12-tetramethyl-13-oxo-25-oxa-3,12,20,31-tetrazapentacyclo-[24.3.1.12,5.016,24.017,21]hentriaconta-1(30),2,4,16,18,21,23,26,28-nonaen-6-yl)phenyl]propanoate]",A (an ΔTagg value less than or equal to 5 °C is marked “A”)
4,"O=C(O)CCc1cccc(C2CCCCCNC(=O)CCc3c(c(F)cc4[nH]ccc34)Oc3ccc(F)c(c3)-c3ncc2[nH]3)c1 (centres unmarked) [Compound 1, 3-[3-(23,29-difluoro-13-oxo-25-oxa-3,12,20,31-tetrazapentacyclo[24.3.1.12,5.016,24.017,21]hentriaconta-1(30),2,4,16,18,21,23,26,28-nonaen-6-yl)phenyl]propanoic acid]",B (a value above 5 °C and less than or equal to 10 °C is marked “B”)
5,"O=C1CCc2c(c(F)cc3[nH]ccc23)Oc2ccc(F)c(c2)-c2ncc([nH]2)C(c2ccccc2)CCCCCN1 (centres unmarked) [Compound 2, 23,29-Difluoro-6-phenyl-25-oxa-3,12,20,31-tetrazapentacyclo[24.3.1.12,5.016,24.017,21]hentriaconta-1(30),2,4,16,18,21,23,26,28-nonaen-13-one]",C (a value greater than 10 °C and less than or equal to 25 °C is marked “C”)
6,"O=C(O)CCc1cccc(C2CCCCCCNC(=O)CCc3c(c(F)cc4[nH]cnc34)Oc3ccc(F)c(c3)-c3ncc2[nH]3)c1 (centres unmarked) [Compound 5, 3-[3-(24,30-Difluoro-14-oxo-26-oxa-3,13,19,21,32-pentazapentacyclo-[25.3.1.12,5.017,25.018,22]dotriaconta-1(31),2,4,17,19,22,24,27,29-nonaen-6-yl)phenyl]propanoic acid]",B (a value above 5 °C and less than or equal to 10 °C is marked “B”)
7,"O=C(O)CCc1cccc(C2CCCCCCNC(=O)Cc3c(c(F)cc4[nH]ccc34)Oc3ccc(F)c(c3)-c3ncc2[nH]3)c1 (centres unmarked) [Compound 6, 3-[3-(23,29-Difluoro-14-oxo-25-oxa-3,13,20,31-tetrazapentacyclo-[24.3.1.12,5.016,24.017,21]hentriaconta-1(30),2,4,16,18,21,23,26,28-nonaen-6-yl)phenyl]propanoic acid]",C (a value greater than 10 °C and less than or equal to 25 °C is marked “C”)
8,"CC(Cc1cccc(C2CCCCCNC(=O)CCc3c(c(F)cc4[nH]ccc34)Oc3ccc(F)c(c3)-c3ncc2[nH]3)c1)C(=O)O (centres unmarked) [Compound 7, 3-[3-(23,29-Difluoro-13-oxo-25-oxa-3,12,20,31-tetrazapentacyclo-[24.3.1.12,5.016,24.017,21]hentriaconta-1(30),2,4,16,18,21,23,26,28-nonaen-6-yl)phenyl]-2-methyl-propanoic acid]",C (a value greater than 10 °C and less than or equal to 25 °C is marked “C”)
9,"CN1Cc2c(c(F)cc3[nH]ccc23)Oc2ccc(F)c(c2)-c2ncc([nH]2)C(c2cccc(CCC(=O)O)c2)CCCCCCC1=O (centres unmarked) [Compound 9, 3-[3-(23,29-Difluoro-14-methyl-13-oxo-25-oxa-3,14,20,31-tetrazapentacyclo[24.3.1.12,5.016,24.017,21]hentriaconta-1(30),2,4,16(24),17(21),18,22,26,28-nonaen-6-yl)phenyl]propanoic acid]",C (a value greater than 10 °C and less than or equal to 25 °C is marked “C”)
10,"O=C(O)CCc1cccc(C2CCCC(=O)NCCCc3c(c(F)cc4[nH]ccc34)Oc3ccc(F)c(c3)-c3ncc2[nH]3)c1 (centres unmarked) [Compound 11, 3-[3-(22,28-Difluoro-10-oxo-24-oxa-3,11,19,30-tetrazapentacyclo[23.3.1.12,5.015,23.016,20]triaconta-1(28),2,4,15(23),16(20),17,21,25(29),26-nonaen-6-yl)phenyl]propanoic acid]",C (a value greater than 10 °C and less than or equal to 25 °C is marked “C”)
11,"CC1(C)CCCC(C)(c2cccc(CCC(=O)O)c2)c2cnc([nH]2)-c2cc(ccc2F)Oc2c(F)cc3[nH]ccc3c2CCC(=O)NC1 (centres unmarked) [Compound 12, 3-[3-(23,29-Difluoro-6,10,10-trimethyl-13-oxo-25-oxa-3,12,20,31-tetrazapentacyclo[24.3.1.12,5.016,24.017,21]hentriaconta-1(30),2,4,16,18,21,23,26,28-nonaen-6-yl)phenyl]propanoic acid]",C (a value greater than 10 °C and less than or equal to 25 °C is marked “C”)
12,"O=C1CCc2c(c(F)cc3[nH]ccc23)Oc2ccc(F)c(c2)-c2ncc([nH]2)C(c2ccccc2)CCCCS(=O)(=O)N1 (centres unmarked) [Compound 13, 23,29-Difluoro-11,11-dioxo-6-phenyl-25-oxa-116-thia-3,12,20,31-tetrazapentacyclo[24.3.1.12,5.016,24.017,21]hentriaconta-1(30),2,4,16,18,21,23,26,28-nonaen-13-one]",C (a value greater than 10 °C and less than or equal to 25 °C is marked “C”)
13,"CN1Cc2c(c(F)cc3[nH]ccc23)Oc2ccc(F)c(c2)-c2ncc([nH]2)C(C)(c2cccc(CCC(=O)O)c2)CCCCCCC1=O (centres unmarked) [Compound 14, 3-[3-(23,29-Difluoro-6,14-dimethyl-13-oxo-25-oxa-3,14,20,31-tetrazapentacyclo[24.3.1.12,5.016,24.017,21]hentriaconta-1(30),2,4,16(24),17(21),18,22,26,28-nonaen-6-yl)phenyl]propanoic acid]",C (a value greater than 10 °C and less than or equal to 25 °C is marked “C”)
14,"O=C(O)CCc1cccc(C2CCC(F)(F)CNC(=O)CCc3c(c(F)cc4[nH]ccc34)Oc3ccc(F)c(c3)-c3ncc2[nH]3)c1 (centres unmarked) [Compound 15, 3-[3-(9,9,22,28-Tetrafluoro-12-oxo-24-oxa-3,11,19,30-tetrazapentacyclo[23.3.1.12,5.015,23.016,20]triaconta-1(28),2,4,15(23),16(20),17,21,25(29),26-nonaen-6-yl)phenyl]propanoic acid]",C (a value greater than 10 °C and less than or equal to 25 °C is marked “C”)
15,"CC1(c2cccc(CCC(=O)O)c2)CCCCC(=O)NCCc2c(c(F)cc3[nH]ccc23)Oc2ccc(F)c(c2)-c2ncc1[nH]2 (centres unmarked) [Compound 16, 3-[3-(22,28-Difluoro-6-methyl-11-oxo-24-oxa-3,12,19,30-tetrazapentacyclo[23.3.1.12,5.015,23.016,20]triaconta-1(29),2,4,15,17,20,22,25,27-nonaen-6-yl)phenyl]propanoic acid]",C (a value greater than 10 °C and less than or equal to 25 °C is marked “C”)
16,"CC1(c2cccc(CCC(=O)O)c2)CCCC(=O)NCCCc2c(c(F)cc3[nH]ccc23)Oc2ccc(F)c(c2)-c2ncc1[nH]2 (centres unmarked) [Compound 17, 3-[3-(22,28-Difluoro-6-methyl-10-oxo-24-oxa-3,11,19,30-tetrazapentacyclo[23.3.1.12,5.015,23.016,20]triaconta-1(29),2,4,15,17,20,22,25,27-nonaen-6-yl)phenyl]propanoic acid]",C (a value greater than 10 °C and less than or equal to 25 °C is marked “C”)
17,"CN1CCCCCC(C)(c2cccc(CCC(=O)O)c2)c2cnc([nH]2)-c2cc(ccc2F)Oc2c(F)cc3[nH]ccc3c2CC(C)(C)C1=O (centres unmarked) [Compound 18, 3-[3-(23,29-Difluoro-6,12,14,14-tetramethyl-13-oxo-25-oxa-3,12,20,31-tetrazapentacyclo[24.3.1.12,5.016,24.017,21]hentriaconta-1(30),2,4,16,18,21,23,26,28-nonaen-6-yl)phenyl]propanoic acid]",A (an ΔTagg value less than or equal to 5 °C is marked “A”)
